Target: T1, microsomal h-COX2 (Homo sapiens, UniProt P35354)
T1 construct: made in house; host or cells: baculovirus infected SF9 cells (microsomal preparation)
T1 sequence (P35354 18-604): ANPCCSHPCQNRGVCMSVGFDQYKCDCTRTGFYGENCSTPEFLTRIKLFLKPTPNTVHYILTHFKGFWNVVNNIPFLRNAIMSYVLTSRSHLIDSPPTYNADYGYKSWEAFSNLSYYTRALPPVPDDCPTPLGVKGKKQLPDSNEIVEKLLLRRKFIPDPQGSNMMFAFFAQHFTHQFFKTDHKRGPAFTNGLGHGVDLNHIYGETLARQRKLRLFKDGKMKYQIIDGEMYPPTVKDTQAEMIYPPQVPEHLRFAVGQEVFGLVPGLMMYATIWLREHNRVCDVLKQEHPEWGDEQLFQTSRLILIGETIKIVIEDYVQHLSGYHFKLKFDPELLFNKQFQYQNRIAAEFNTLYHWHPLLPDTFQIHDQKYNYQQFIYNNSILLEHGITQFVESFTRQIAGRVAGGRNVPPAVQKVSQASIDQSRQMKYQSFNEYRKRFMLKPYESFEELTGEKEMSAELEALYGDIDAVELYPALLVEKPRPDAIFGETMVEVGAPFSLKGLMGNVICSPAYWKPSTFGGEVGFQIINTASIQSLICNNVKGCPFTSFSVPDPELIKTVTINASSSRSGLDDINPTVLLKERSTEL
Experiment: Microsomal assay: inhibitory activity against microsomal h-COX2
Assay type: biochemical
Conditions: microsomal preparation from baculovirus infected SF9 cells; 1 hour incubation with compound; 0.1 μM arachidonic acid, 10 minutes; PGE2 by EIA; read-out: IC50 values for inhibition of COX-2
Procedure: Biological Data Microsomal Assay
Inhibitory activity against microsomal h-COX2 was assessed against a microsomal preparation from baculovirus infected SF9 cells. An aliquot of microsomal preparation was thawed slowly on ice and a 1/40,000 dilution prepared from it into the assay buffer (sterile water, degassed with argon containing 100 mM HEPES (pH 7.4), 10 mM EDTA (pH7.4), 1 mM phenol, 1 mM reduced glutathione, 20 mg/ml gelatin and 0.001 mM Hematin). Once diluted the enzyme solution was then sonicated for 5 seconds (Branson sonicator, setting 4, 1 cm tip) to ensure a homogeneous suspension. 155 μl enzyme solution was then added to each well of a 96-well microtitre plate containing either 5 μl test compound (40× required test concentration) or 5 μl DMSO for controls. Plates were then mixed and incubated at room temperature for 1 hour. Following the incubation period, 40 μl of 0.5 μM arachidonic acid was added to each well to give a final concentration of 0.1 μM. Plates were then mixed and incubated for exactly 10 minutes (room temperature) prior to addition of 25 μl 1M HCl (hydrochloric acid) to each well to stop the reaction. 25 μl of 1M NaOH (sodium hydroxide) was then added to each well to neutralise the solution prior to determination of PGE2 levels by enzyme immunoassay (EIA).

SMILES | IC50
Cc1cc(NC2CCCC2)nc(-c2ccc(S(C)(=O)=O)cc2)c1 [Example 1, N-Cyclopentyl-4-methyl-6-[4-(methylsulfonyl)phenyl]pyridine-2-amine] | ≤ 500 nM
Cc1cc(OCc2ccccc2)nc(-c2ccc(S(C)(=O)=O)cc2)c1 [Example 2, 2-Benzyloxy-4-methyl-6-[4-(methylsulfonyl)phenyl]pyridine] | ≤ 500 nM
Cc1cc(-c2ccc(S(C)(=O)=O)cc2)nc(N(C)Cc2ccccc2)c1 [Example 3, N-Benzyl-N-methyl-4-methyl-6-[4-(methylsulfonyl)phenyl]pyridine-2-amine] | ≤ 500 nM
Cc1cc(NCc2ccc(Cl)cc2)nc(-c2ccc(S(C)(=O)=O)cc2)c1 [Example 4] | ≤ 500 nM
CN(Cc1ccccc1)c1cc(C(F)(F)F)cc(-c2ccc(S(C)(=O)=O)cc2)n1 [Example 5] | ≤ 500 nM
CS(=O)(=O)c1ccc(-c2cc(C(F)(F)F)cc(NCc3ccco3)n2)cc1 [Example 6] | ≤ 500 nM
Cc1cc(NCc2ccccc2)nc(-c2ccc(S(C)(=O)=O)cc2)c1 [Example 7] | ≤ 500 nM
CS(=O)(=O)c1ccc(-c2cc(C(F)(F)F)cc(NCC3CCCCC3)n2)cc1 [Example 8] | ≤ 500 nM
COc1ccc(Nc2cc(C)cc(-c3ccc(S(C)(=O)=O)cc3)n2)cc1 [Example 9] | ≤ 500 nM
Cc1cc(OCC(C)C)nc(-c2ccc(S(C)(=O)=O)cc2)c1 [Example 10] | ≤ 500 nM
Cc1cc(Oc2cccnc2)nc(-c2ccc(S(C)(=O)=O)cc2)c1 [Example 11] | ≤ 500 nM
C=CCNc1cc(C(F)(F)F)cc(-c2ccc(S(C)(=O)=O)cc2)n1 [Example 12] | ≤ 500 nM
Cc1cc(Nc2ccccc2Cl)nc(-c2ccc(S(C)(=O)=O)cc2)c1 [Example 13] | ≤ 500 nM
Cc1cc(NCc2cc(F)cc(F)c2)nc(-c2ccc(S(C)(=O)=O)cc2)c1 [Example 14] | ≤ 500 nM
Cc1cc(NCc2cccnc2)nc(-c2ccc(S(C)(=O)=O)cc2)c1 [Example 15] | ≤ 500 nM
COc1ccc(Nc2cc(C(F)(F)F)cc(-c3ccc(S(C)(=O)=O)cc3)n2)cc1 [Example 16] | ≤ 500 nM
Cc1cc(NC2CCCCC2)nc(-c2ccc(S(C)(=O)=O)cc2)c1 [Example 17] | ≤ 500 nM
CCCCNc1cc(C(F)(F)F)cc(-c2ccc(S(C)(=O)=O)cc2)n1 [Example 18] | ≤ 500 nM
CC(C)CNc1cc(C(F)(F)F)cc(-c2ccc(S(C)(=O)=O)cc2)n1 [Example 19] | ≤ 500 nM
COc1ccc(CNc2cc(C)cc(-c3ccc(S(C)(=O)=O)cc3)n2)cc1 [Example 20] | ≤ 500 nM
Cc1cc(NCc2ccc(F)cc2)nc(-c2ccc(S(C)(=O)=O)cc2)c1 [Example 21] | ≤ 500 nM

SMILES | IC50
Cc1ccc(CNc2cc(C(F)(F)F)cc(-c3ccc(S(C)(=O)=O)cc3)n2)o1 [Example 22] | ≤ 500 nM
CCCCNc1cc(C)cc(-c2ccc(S(C)(=O)=O)cc2)n1 [Example 23] | ≤ 500 nM
Cc1cc(NCc2ccco2)nc(-c2ccc(S(C)(=O)=O)cc2)c1 [Example 24] | ≤ 500 nM
Cc1ccc(CNc2cc(C)cc(-c3ccc(S(C)(=O)=O)cc3)n2)cc1 [Example 25] | ≤ 500 nM
CS(=O)(=O)c1ccc(-c2cc(C(F)(F)F)cc(NC3CCCC3)n2)cc1 [Example 26] | ≤ 500 nM
Cc1cc(NCc2ccncc2)nc(-c2ccc(S(C)(=O)=O)cc2)c1 [Example 27] | ≤ 500 nM
Cc1cc(NCc2ccccn2)nc(-c2ccc(S(C)(=O)=O)cc2)c1 [Example 28] | ≤ 500 nM
CCOc1ccc(CNc2cc(C)cc(-c3ccc(S(C)(=O)=O)cc3)n2)cc1 [Example 30] | ≤ 500 nM
Cc1cc(NCC(C)C)nc(-c2ccc(S(C)(=O)=O)cc2)c1 [Example 31] | ≤ 500 nM
Cc1cc(Nc2ccc(F)cc2)nc(-c2ccc(S(C)(=O)=O)cc2)c1 [Example 43] | ≤ 500 nM
Cc1cc(NCc2cccs2)nc(-c2ccc(S(C)(=O)=O)cc2)c1 [Example 44] | ≤ 500 nM
CCc1cc(-c2ccc(S(C)(=O)=O)cc2)nc(N(C)Cc2ccccc2)c1 [Example 45] | ≤ 500 nM
CCc1cc(NCC2CCOCC2)nc(-c2ccc(S(C)(=O)=O)cc2)c1 [Example 46] | ≤ 500 nM
CCc1cc(NCC(C)C)nc(-c2ccc(S(C)(=O)=O)cc2)c1 [Example 47] | ≤ 500 nM
Cc1ccc(CNc2cc(C(F)(F)F)cc(-c3ccc(S(C)(=O)=O)cc3)n2)cc1 [Example 48] | ≤ 500 nM
Cc1ccccc1CNc1cc(C(F)(F)F)cc(-c2ccc(S(C)(=O)=O)cc2)n1 [Example 49] | ≤ 500 nM
CS(=O)(=O)c1ccc(-c2cc(C(F)(F)F)cc(NCc3ccccc3Cl)n2)cc1 [Example 50] | ≤ 500 nM
Cc1cnc(CNc2cc(C(F)(F)F)cc(-c3ccc(S(C)(=O)=O)cc3)n2)cn1 [Example 51] | ≤ 500 nM
C[C@H](Nc1cc(C(F)(F)F)cc(-c2ccc(S(C)(=O)=O)cc2)n1)c1ccccc1 [Example 52] | ≤ 500 nM
C[C@@H](Nc1cc(C(F)(F)F)cc(-c2ccc(S(C)(=O)=O)cc2)n1)c1ccccc1 [Example 53] | ≤ 500 nM
CS(=O)(=O)c1ccc(-c2cc(C(F)(F)F)cc(NC3CCCCC3)n2)cc1 [Example 54, N-cyclohexyl-4-(trifluoromethyl)-6-[4-(methylsulfonyl)phenyl]pyridine-2-amine] | ≤ 500 nM

SMILES | IC50
COc1ccc(CNc2cc(C(F)(F)F)cc(-c3ccc(S(C)(=O)=O)cc3)n2)cc1 [Example 55] | ≤ 500 nM
Cc1cc(Nc2ccc(C)nc2)nc(-c2ccc(S(C)(=O)=O)cc2)c1 [Example 56] | ≤ 500 nM
Cc1ccc(-c2ccc(S(C)(=O)=O)cc2)nc1NCc1ccccc1 [Example 57] | ≤ 500 nM
Cc1cc(-c2ccc(S(C)(=O)=O)cc2)nc(N(C)Cc2ccccc2)c1C [Example 58] | ≤ 500 nM
Cc1cc(-c2ccc(S(C)(=O)=O)cc2)nc(NCc2ccccc2)c1C [Example 59] | ≤ 500 nM
Cc1cc(-c2ccc(S(C)(=O)=O)cc2)nc(NCC(C)C)c1C [Example 60] | ≤ 500 nM
CN(Cc1ccccc1)c1cccc(-c2ccc(S(C)(=O)=O)cc2)n1 [Example 61] | ≤ 500 nM
Cc1cc(-c2ccc(S(C)(=O)=O)cn2)nc(N(C)Cc2ccccc2)c1 [Example 62] | ≤ 500 nM
Cc1cc(-c2ccc(S(C)(=O)=O)cc2)nc(N2CCCCC2)c1C [Example 66] | ≤ 500 nM
Cc1cc(NCc2ccccc2)nc(-c2ccc(S(C)(=O)=O)c(F)c2)c1 [Example 67] | ≤ 500 nM
Cc1cc(-c2ccc(S(C)(=O)=O)cc2)nc(N(C)Cc2cccc(C)n2)c1 [Example 68] | ≤ 500 nM
CCc1cc(NCc2ccco2)nc(-c2ccc(S(C)(=O)=O)cc2)c1 [Example 69] | ≤ 500 nM
COc1ccc(Nc2cc(C)cc(-c3ccc(S(C)(=O)=O)cn3)n2)cc1 [Example 70] | ≤ 500 nM
CCC(CC)Nc1cc(C)cc(-c2ccc(S(C)(=O)=O)cc2)n1 [Example 74] | ≤ 500 nM
CS(=O)(=O)c1ccc(-c2cccc(NCc3ccccc3)n2)cc1 [Example 75] | ≤ 500 nM
Cc1cc(NCc2ncc[nH]2)nc(-c2ccc(S(C)(=O)=O)cc2)c1 [Example 76] | ≤ 500 nM
Cc1cc(NCc2nccn2C)nc(-c2ccc(S(C)(=O)=O)cc2)c1 [Example 80] | ≤ 500 nM
Cc1cc(NCc2c[nH]nc2C)nc(-c2ccc(S(C)(=O)=O)cc2)c1 [Example 81] | ≤ 500 nM
Cc1cc(NCc2ccn(C)n2)nc(-c2ccc(S(C)(=O)=O)cc2)c1 [Example 82] | ≤ 500 nM

Source: patent US7446117B2, “Cox-2 inhibiting pyridine derivatives” (Glaxo Group Limited, priority 2002, dated 2008)
